According to patent US20170240566A1, “AMINO-SUBSTITUTED ANNULATED PYRIMIDINES AND USE THEREOF” (Bayer Pharma Aktiengesellschaft, priority 2014, published 2017):
Converted amounts (≈) assume the structure as drawn.

Assays:
[1] = Solubility of substances in buffer pH 6.5; type: physicochemical; details: aqueous buffer, kinetic from dmso stock, PBS buffer pH 6.5, room temperature
Procedure: B-10. Determination of the Solubility of Substances in Buffer pH 6.5
40 μl of DMSO are added to 2 mg of a test substance [50 g/l]. 10 μl of this solution are removed and introduced into 990 μl of PBS buffer pH 6.5 (c=500 μg/ml). This solution/suspension is shaken at room temperature for 24 h. After 30 min of ultracentrifugation at 114 000 g, the supernatant is removed, diluted with ACN/water 8:2 and analyzed by LC-MSMS.
For calibration, likewise 10 pi are removed from the DMSO stock solution and introduced into 823 μl of DMSO (c=600 μg/ml). Quantification takes place using a five-point calibration curve.

[2] = molecular target: T1, human phosphodiesterase 5 (PDE 5) (Homo sapiens, UniProt O76074); assay: Inhibition of human phosphodiesterase 5 (PDE 5); type: biochemical; details: PDE 5 preparation from human platelets; in some cases means of individual determinations
T1 construct: PDE 5 preparations are obtained from human platelets by disruption; from tissue; host or cells: human platelets
Procedure: B-3. Inhibition of human phosphodiesterase 5 (PDE 5)
PDE 5 preparations are obtained from human platelets by disruption (Microfluidizer®, 800 bar, 3 passes), followed by centrifugation (75 000 g, 60 min, 4° C.) and ion exchange chromatography of the supernatant on a Mono Q 10/10 column (linear sodium chloride gradient, elution with a 0.2-0.3M solution of sodium chloride in buffer (20 mM Hepes pH 7.2, 2 mM magnesium chloride). Fractions having PDE 5 activity are combined (PDE 5 preparation) and stored at −80° C.
To determine their in vitro action on human PDE 5, the test substances are dissolved in 100% DMSO and serially diluted. Typically, dilution series (1:3) from 200 μM to 0.091 μM are prepared (resulting final concentrations in the test: 4 μM to 0.0018 μM). In each case 2 μl of the diluted substance solutions are placed into the wells of microtitre plates (Isoplate-96/200W; Perkin Elmer). Subsequently, 50 μl of a dilution of the above-described PDE 5 preparation are added. The dilution of the PDE 5 preparation is chosen such that during the later incubation less than 70% of the substrate are converted (typical dilution: 1:100; dilution buffer: 50 mM tris/hydrochloric acid pH 7.5, 8.3 mM magnesium chloride, 1.7 mM EDTA, 0.2% BSA). The substrate, [8-^3H] cyclic guanosine-3′,5′-monophosphate (1 μCi/μl; Perkin Elmer), is diluted 1:2000 with assay buffer (50 mM tris/hydrochloric acid pH 7.5, 8.3 mM magnesium chloride, 1.7 mM EDTA) to a concentration of 0.0005 μμCi/μl. By addition of 50 μl (0.025 μCi) of the diluted substrate, the enzyme reaction is finally started. The test mixtures are incubated at room temperature for 60 min and the reaction is stopped by adding 25 μl of a suspension of 18 mg/ml yttrium scintillation proximity beads in water (phosphodiesterase beads for SPA assays, RPNQ 0150, Perkin Elmer). The microtitre plates are sealed with a film and left to stand at room temperature for 60 min. Subsequently, the plates are analysed for 30 s per well in a Microbeta scintillation counter (Perkin Elmer). IC50 values are determined using the graphic plot of the substance concentration against percentage PDE 5 inhibition.

[3] = test system: recombinant guanylate cyclase reporter cell line; assay: Effect on a recombinant guanylate cyclase reporter cell line; type: cell-based; details: minimum effective concentration; in some cases means of individual determinations; read-out: MEC
Procedure: B-2. Effect on a Recombinant Guanylate Cyclase Reporter Cell Line
The cellular activity of the compounds of the invention is determined using a recombinant guanylate cyclase reporter cell line, as described in F. Wunder et al., Anal. Biochem. 339, 104-112 (2005). Representative values (MEC=minimum effective concentration) for the compounds of the invention are shown in the table below (Table 1; in some cases as means of individual determinations): […]

SMILES	solubility at 24 h [1] [µg/mL]	IC50 [2] [nM]	minimal effective concentration [3] [µM]
Cc1nc2c(cc1F)c(-c1nc(NCC(N)(CF)CF)c3c(n1)NC(=O)C3(C)C)nn2Cc1cccc(F)c1F [Example 1, 4-{[2-Amino-3-fluoro-2-(fluoromethyl)propyl]amino}-2[1-(2,3-difluorobenzyl)-5-fluoro-6-methyl-1H-pyrazolo[3,4-b]pyridin-3-yl]-5,5-dimethyl-5,7-dihydro-6H-pyrrolo[2,3-d]pyrimidin-6-one]	7.6 (≈ 13.6 µM)	52	0.3
Cc1nc2c(cc1F)c(-c1nc(NCC(N)(CF)CF)c3c(n1)NC(=O)C3(C)C)nn2Cc1ncccc1F [Example 4, 4-{[2-Amino-3-fluoro-2-(fluoromethyl)propyl]amino}-2-{5-fluoro-1-[(3-fluoropyridin-2-yl)methyl]-6-methyl-1H-pyrazolo[3,4-b]pyridin-3-yl}-5,5-dimethyl-5,7-dihydro-6H-pyrrolo[2,3-d]pyrimidin-6-one]	260 (≈ 479 µM)	180	1
Cc1nc2c(cc1F)c(-c1nc(NCC(N)(CF)CF)c3c(n1)NC(=O)C3(C)C)nn2Cc1ccccc1F [Example 2, 4-{[2-Amino-3-fluoro-2-(fluoromethyl)propyl]amino}-2-[5-fluoro-1-(2-fluorobenzyl)-6-methyl-1H-pyrazolo[3,4-b]pyridin-3-yl]-5,5-dimethyl-5,7-dihydro-6H-pyrrolo[2,3-d]pyrimidin-6-one]	5.1 (≈ 9.4 µM)	160	0.1

The next lines start with results.

solubility at 24 h [1] [µg/mL]	IC50 [2] [nM]	SMILES	minimal effective concentration [3] [µM]
278 (≈ 526 µM)	70	CC1(C)C(=O)Nc2nc(-c3nn(Cc4ncccc4F)c4ncc(F)cc34)nc(NCC(N)(CF)CF)c21 [Example 5, 4-{[2-Amino-3-fluoro-2-(fluoromethyl)propyl]amino}-2-{5-fluoro-1-[(3-fluoropyridin-2-yl)methyl]-1H-pyrazolo[3,4-b]pyridin-3-yl}-5,5-dimethyl-5,7-dihydro-6H-pyrrolo[2,3-d]pyrimidin-6-one]	1
–	120	Cc1nc2c(cc1F)c(-c1nc(NCC(N)(CF)CF)c3c(n1)NC(=O)C3(C)C(F)(F)F)nn2Cc1cccc(F)c1F (single isomer, unassigned; ent-4) [Example 7, ent-4-{[2-Amino-3-fluoro-2-(fluoromethyl)propyl]amino}-2-[1-(2,3-difluorobenzyl)-5-fluoro-6-methyl-1H-pyrazolo[3,4-b]pyridin-3-yl]-5-methyl-5-(trifluoromethyl)-5,7-dihydro-6H-pyrrolo[2,3-d]pyrimidin-6-one (Enantiomer A)]	0.3
